Assay results from BindingDB's records for doi:10.1021/jm00375a008 (1984).

Target: Progesterone receptor (Gallus gallus) (UniProt P07812)
Assay: Equilibrium dissociation constant for chick oviduct progesterone receptor

Chain of Progesterone receptor (Gallus gallus) (P07812 whole entry, looked up): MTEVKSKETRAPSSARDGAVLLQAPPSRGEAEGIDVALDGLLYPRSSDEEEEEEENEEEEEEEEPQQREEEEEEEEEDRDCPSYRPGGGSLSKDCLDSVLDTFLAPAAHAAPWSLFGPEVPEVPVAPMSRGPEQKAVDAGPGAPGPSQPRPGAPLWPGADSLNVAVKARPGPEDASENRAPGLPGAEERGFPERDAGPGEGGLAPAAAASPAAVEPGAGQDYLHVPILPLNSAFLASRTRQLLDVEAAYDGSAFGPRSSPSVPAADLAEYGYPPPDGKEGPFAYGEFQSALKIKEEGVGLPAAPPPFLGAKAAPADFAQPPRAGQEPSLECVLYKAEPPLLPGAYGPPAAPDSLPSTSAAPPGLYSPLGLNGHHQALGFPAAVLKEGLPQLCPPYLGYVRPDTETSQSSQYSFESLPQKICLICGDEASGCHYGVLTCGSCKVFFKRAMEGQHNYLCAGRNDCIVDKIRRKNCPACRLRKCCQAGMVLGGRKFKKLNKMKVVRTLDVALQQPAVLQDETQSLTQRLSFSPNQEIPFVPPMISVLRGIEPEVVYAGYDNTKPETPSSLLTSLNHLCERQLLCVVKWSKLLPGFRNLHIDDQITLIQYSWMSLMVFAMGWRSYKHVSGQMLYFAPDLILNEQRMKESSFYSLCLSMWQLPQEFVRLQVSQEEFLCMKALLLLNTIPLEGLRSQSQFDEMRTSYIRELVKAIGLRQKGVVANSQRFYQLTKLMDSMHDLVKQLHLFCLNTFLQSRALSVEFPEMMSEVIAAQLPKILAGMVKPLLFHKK

Kd: 160 nM
SMILES: C#C[C@@H](O)C12CCCC1C1CCC3=CC(=O)CC[C@@H]3C1CC2 (stereo partly specified)
